According to patent US6417213B2, “Tricyclic compound, their production and use” (Takeda Chemical Industries, Ltd., priority 1996, dated 2002):

Key:
human PGI2 receptors = biological target: T1, human PGI2 receptors (Homo sapiens, UniProt P43119); assay: PGI2 receptor binding assay; details: membrane fraction of CHO cells expressing human PGI2 receptors, [3H]Iloprost 20 nM, pH 6.0, 37° C. 1 hour; read-out: IC50, inhibition of [3H]Iloprost binding to the human PGI2 receptor
T1 construct: expressed in transfected cells; host or cells: CHO cells (membrane fraction)
T1 sequence (P43119 whole entry): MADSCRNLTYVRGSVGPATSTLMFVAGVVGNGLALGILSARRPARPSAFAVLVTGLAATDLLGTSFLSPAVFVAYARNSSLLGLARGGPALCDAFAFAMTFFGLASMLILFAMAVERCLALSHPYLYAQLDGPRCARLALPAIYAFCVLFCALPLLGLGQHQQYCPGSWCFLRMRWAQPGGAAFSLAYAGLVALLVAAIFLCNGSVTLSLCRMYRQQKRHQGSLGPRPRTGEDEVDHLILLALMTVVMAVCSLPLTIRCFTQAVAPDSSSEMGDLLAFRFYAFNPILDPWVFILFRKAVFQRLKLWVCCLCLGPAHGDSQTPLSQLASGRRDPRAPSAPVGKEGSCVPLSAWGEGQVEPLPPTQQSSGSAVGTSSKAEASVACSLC
Procedure: PGI2 receptor binding assay
MES-NaOH buffer (pH 6.0) (500 μL) containing the membrane fraction (40 μg) of CHO cells caused to express human PGI2 receptors, [^3H]Iloprost (20 nM), and a test compound solution (50 μL) was incubated at 37° C. for 1 hour and then filtered through a membrane filter to separate the membrane-bound [^3H]Iloprost from the non-membrane-binding [^3H]Iloprost. The radioactivity of the membrane-bound [^3H]Iloprost was determined with a liquid scintillation counter and the binding inhibition rate in each drug treatment group was determined against the specific binding of [^3H]Iloprost to the human PGI2 receptor in the control (solvent) group.
The test compound was added at the final concentrations of 10^−6 to 10^−11 M and the IC50 values were calculated from the inhibition rates at the respective concentrations.

human platelets = assay: Platelet aggregation inhibition assay; type: cell-based; details: ADP-induced aggregation, platelet-rich plasma from healthy male adult donors, 37° C.
Procedure: Platelet aggregation inhibition assay
The citrated blood from healthy male adult donors was centrifuged at 1000×g for […] and 20 minutes to harvest platelet-rich plasma (PRP) and platelet-poor plasma (PPP), respectively. Then, PRP was diluted with PPP to a platelet count of 300,000/μL. The degree of platelet aggregation was measured with a platelet aggregation measuring apparatus.
In the assay cuvette, 200 μL of PRP was incubated at 37° C. for 2 minutes. Then, 20 μL of a test drug solution was added and the mixture was further incubated for 2 minutes. Thereafter, aggregation was induced by adding 20 μl of ADP solution. The aggregation in the drug treatment group was compared with the maximum aggregation in the control group to find the inhibition rate. ADP was used in the minimal concentration (2×10^−6 to 3×10^−5 M) inducing maximal aggregation in each assay.
The test compound was added at the final concentrations of 10^−3 to 10^−9 and the IC50 value was calculated from the inhibition rates at the respective concentrations.

IC50 (human PGI2 receptors) [nM] | Compound | IC50 (human platelets) [nM]
2 | O=C(O)COc1cccc2c1CCc1sc(SC(c3ccccc3)c3ccccc3)nc1-2 [Example 21, [(2-Diphenylmethylthio-4,5-dihydronaphtho[1,2-d]thiazol-6-yl)oxy]acetic acid] | 210
21 | O=C(O)COc1cccc2c1CCc1sc(S(=O)(=O)CC(c3ccccc3)c3ccccc3)nc1-2 [Example 29, [[2-(2,2-Diphenylethyl)sulfonyl-4,5-dihydronaphtho[1,2-d]thiazol-6-yl]oxy]acetic acid] | –

More lines, now with the values behind:

Compound | IC50 (human PGI2 receptors) [nM] | IC50 (human platelets) [nM]
O=C(O)COc1cccc2c1CCc1sc(SCC(c3ccccc3)c3ccccc3)nc1-2 [Example 1, [[2-(2,2-Diphenylethyl)thio-4,5-dihydronaphtho[1,2-d]thiazol-6-yl]oxy]acetic acid] | 24 | 540
O=C(O)COc1cccc2c1OCc1sc(SCCC(c3ccccc3)c3ccccc3)nc1-2 [Example 11, [[2-(3,3-Diphenylpropyl)thio-4H-[1]benzopyrano[4,3-d]thiazol-6-yl]oxy]acetate acid] | 81 | –
O=C(O)COc1cccc2c1OCc1sc(SCC(c3ccccc3)c3ccccc3)nc1-2 [Example 12, [[2-(2,2-Diphenylethyl)thio-4H-[1]benzopyrano[4,3-d]thiazol-6-yl]oxy]acetic acid] | 61 | –
